Data published in patent US20250353873A1, “COMPOUNDS AND METHODS FOR MODULATING APOE EXPRESSION” (Ionis Pharmaceuticals, Inc., priority 2024, published 2025).
Strand notation (5' to 3'): a small letter for the sugar, then the base; units joined by * are phosphorothioate-linked, units joined directly phosphodiester-linked; [ ] holds rarer units or linkages, { } end groups; capitals alone tell only the bases. [ms] = mesyl phosphoramidate linkage; e = 2'-O-(2-methoxyethyl) (MOE); k = constrained ethyl (cEt); [5mC] = 5-methylcytosine; d = 2'-deoxy (DNA)

Key:
human APOE RNA [1] = experiment: Dose-dependent inhibition of human APOE RNA in HepG2 cells, electroporation, 50,000 cells per well, RT-PCR normalized to GAPDH (Example 4, Tables 8-10); assay type: cell-based; settings: HepG2 cells, electroporation, Table 8; for APOE RNA (% UTC) 5 nM / APOE RNA (% UTC) 13 nM / APOE RNA (% UTC) 33 nM / APOE RNA (% UTC) 82 nM / APOE RNA (% UTC) 205 nM / APOE RNA (% UTC) 512 nM / IC50: 24-hour treatment; for APOE RNA (% UTC) 1,280 nM: 24-hour treatment, 1,280 nM; for APOE RNA (% UTC) 3,200 nM: 24-hour treatment, 3,200 nM; for APOE RNA (% UTC) 8,000 nM: 24-hour treatment, 8,000 nM; for APOE RNA (% UTC) 20,000 nM: 24-hour treatment, 20,000 nM; for IC50: reduction of human APOE RNA
In short: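 Readout is percent APOE RNA versus untreated controls, measured by RT-PCR (primer probe set RTS3073) and normalized to human GAPDH. Modified oligonucleotides were delivered by electroporation at varying doses into HepG2 cells plated at 50,000 per well.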

human APOE RNA [2] = experiment: Dose-dependent inhibition of human APOE RNA in differentiated SH-SY5Y cells, free uptake, 5 days (Example 5); assay type: cell-based; settings: 5 days (Table 14)
In short: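 APOE RNA, measured by RTS3073 primer probe set and normalized to human PPIA, is reported as % of untreated control cells, with IC50 fitted. Cells were differentiated SH-SY5Y at 10,000/well, given modified oligonucleotide at several concentrations by free uptake for 5 days.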

human APOE RNA [3] = experiment: Activity in APOE C57BL/6NTac-Apoeem7250 knock-in mice, single ICV bolus, 4 weeks (Example 10); assay type: in vivo; settings: single ICV bolus 300 μg, 4 weeks post treatment, normalized to mouse Ppia
In short: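 Human APOE RNA, quantified by real-time RT-PCR with RTS3073 and normalized to mouse Ppia, was read in cortical brain and spinal cord 4 weeks post dosing. Dosing was a single ICV bolus of 300 μg per knock-in mouse; values are % of PBS-treated animals.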

human APOE RNA [4] = experiment: Activity in APOE C57BL/6NTac-Apoeem7250 knock-in mice, single ICV bolus, 8 weeks (Example 11); assay type: in vivo; settings: single ICV bolus 300 μg, 8 weeks post treatment, normalized to mouse Ppia
In short: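 Cortical and spinal cord human APOE RNA quantified by RT-qPCR 8 weeks after a single 300 μg ICV dose in knock-in mice, Ppia-normalized. Values are percent of levels in PBS-treated animals.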

human APOE RNA [5] = experiment: Activity in APOE C57BL/6NTac-Apoeem7250 knock-in mice, single ICV bolus, 16 weeks (Example 12); assay type: in vivo; settings: single ICV bolus 300 μg, 16 weeks post treatment, normalized to mouse Ppia
In short: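 A single 300 μg intracerebroventricular dose was given, with PBS-treated mice as reference; cortical and spinal cord tissue was taken 16 weeks later. RT-qPCR quantified human APOE RNA, Ppia-normalized, expressed relative to PBS animals (% control).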

human APOE RNA [6] = experiment: Activity in APOE C57BL/6NTac-Apoeem7250 knock-in mice, single ICV bolus, 20 weeks (Example 13); assay type: in vivo; settings: single ICV bolus 300 μg, 20 weeks post treatment, normalized to mouse Ppia
In short: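 Cortical and spinal cord RNA was assayed by real-time RT-PCR for human APOE, normalized to mouse Ppia and reported as percent of PBS controls. Tissue was taken twenty weeks after one 300 μg intracerebroventricular bolus in APOE knock-in mice, 4 per group.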

Row | Substance | APOE RNA (% UTC) 5 nM (human APOE RNA [1]) | APOE RNA (% UTC) 13 nM (human APOE RNA [1]) | APOE RNA (% UTC) 33 nM (human APOE RNA [1]) | APOE RNA (% UTC) 82 nM (human APOE RNA [1]) | APOE RNA (% UTC) 205 nM (human APOE RNA [1]) | APOE RNA (% UTC) 512 nM (human APOE RNA [1]) | APOE RNA (% UTC) 1,280 nM (human APOE RNA [1]) | APOE RNA (% UTC) 3,200 nM (human APOE RNA [1]) | APOE RNA (% UTC) 8,000 nM (human APOE RNA [1]) | APOE RNA (% UTC) 20,000 nM (human APOE RNA [1]) | IC50 (human APOE RNA [1]) | APOE RNA (% UTC) (human APOE RNA [2]; 5 nM) | APOE RNA (% UTC) (human APOE RNA [2]; 13 nM) | APOE RNA (% UTC) (human APOE RNA [2]; 33 nM) | APOE RNA (% UTC) (human APOE RNA [2]; 82 nM) | APOE RNA (% UTC) (human APOE RNA [2]; 205 nM) | APOE RNA (% UTC) (human APOE RNA [2]; 512 nM) | APOE RNA (% UTC) (human APOE RNA [2]; 1,280 nM) | APOE RNA (% UTC) (human APOE RNA [2]; 3,200 nM) | APOE RNA (% UTC) (human APOE RNA [2]; 8,000 nM) | further results
1 | 1778130: modified oligonucleotide complementary to human APOE RNA (eA*e[5mC]eTeTeG*kG*dT*dG[ms]dA[ms]dA*dT*d[5mC]*dT*dT*dT*dA[ms]kTkT*eA*eA; antisense) [compound 1778130] | 100 % UTC | 106 % UTC | 93 % UTC | 75 % UTC | 61 % UTC | 44 % UTC | 26 % UTC | 19 % UTC | 10 % UTC | 6 % UTC | 400 nM | 78 % UTC | 75 % UTC | 75 % UTC | 51 % UTC | 54 % UTC | 56 % UTC | 51 % UTC | 31 % UTC | 24 % UTC | APOE RNA (% UTC) (human APOE RNA [2]; 20,000 nM): 12 % UTC; IC50 (human APOE RNA [2]): 370 nM; APOE RNA (% control) Cortex (human APOE RNA [3]): 31 % control; APOE RNA (% control) Spinal Cord (human APOE RNA [3]): 34 % control; APOE RNA (% control) Cortex (human APOE RNA [4]): 23 % control; APOE RNA (% control) Spinal Cord (human APOE RNA [4]): 18 % control; APOE RNA (% control) Cortex (human APOE RNA [5]): 34 % control; APOE RNA (% control) Spinal Cord (human APOE RNA [5]): 15 % control; APOE RNA (% control) Cortex (human APOE RNA [6]): 48 % control; APOE RNA (% control) Spinal Cord (human APOE RNA [6]): 19 % control
2 | 1785599: modified oligonucleotide complementary to human APOE RNA (k[5mC]*kT*kT*dG[ms]dG[ms]dT[ms]dG[ms]dA[ms]dA[ms]dT[ms]d[5mC]*dT*dT*dT*dA*dT*kT*kA*dA[ms]kA; antisense) [compound 1785599] | 116 % UTC | 116 % UTC | 100 % UTC | 87 % UTC | 65 % UTC | 48 % UTC | 43 % UTC | 21 % UTC | 9 % UTC | 2 % UTC | 640 nM | 77 % UTC | 61 % UTC | 72 % UTC | 60 % UTC | 46 % UTC | 20 % UTC | 21 % UTC | 17 % UTC | 12 % UTC | APOE RNA (% UTC) (human APOE RNA [2]; 20,000 nM): 6 % UTC; IC50 (human APOE RNA [2]): 100 nM; APOE RNA (% control) Cortex (human APOE RNA [3]): 32 % control; APOE RNA (% control) Spinal Cord (human APOE RNA [3]): 38 % control; APOE RNA (% control) Cortex (human APOE RNA [4]): 26 % control; APOE RNA (% control) Spinal Cord (human APOE RNA [4]): 34 % control; APOE RNA (% control) Cortex (human APOE RNA [5]): 35 % control; APOE RNA (% control) Spinal Cord (human APOE RNA [5]): 54 % control; APOE RNA (% control) Cortex (human APOE RNA [6]): 55 % control; APOE RNA (% control) Spinal Cord (human APOE RNA [6]): 20 % control
